According to patent US20200155609A1, “COMPOSITIONS AND METHODS OF MAKING EXPANDED HEMATOPOIETIC STEM CELLS USING PTEN INHIBITORS” (Transfusion Health LLC, priority 2017, published 2020):

Legend:
[1] = system: CD34+ cells isolated from donor non-mobilized peripheral blood (CD133+ and CD90+ cells); test: Relative expansive effect of SF1670 derivatives, fold change days 2 to 7, non-mobilized peripheral blood CD34+ cells (Example 21); type: cell-based, human; details: fold change days 2 to 7 normalized to basic and +SF (500 nM SF1670) controls
Procedure: CD34+ cells were isolated from donor peripheral blood as described in Example 20. Isolated CD34+ cells were incubated in an in vitro culture media of Alpha MEM without phenol red, 10% (v/v) heat inactivated fetal bovine serum (FBS). When testing the substituted derivatives of 9,10-dihydrophenathrene and phenanthrene (+Derivative conditions), two internal controls were used: a positive control (+SF conditions) and a baseline control (i.e, basic conditions (“cytokines only”)). The media components and concentrations used for the compounds tested are described in Table 6. The culture also included an antibiotic solution that includes penicillin, streptomycin, and amphotericin B to avoid contamination. Controls were included because the amount of expansion in samples obtained varies from individual to individual.
(§1) Cultures were incubated at 3% oxygen (controlled by nitrogen) and 5% CO2.
Small molecule components were added separately and fresh each time the media needs to be refreshed. Cytokines can be stored together. Media renewal should occur at least every few days.
On the days indicated one-half of the volume of the cell culture was removed for data analysis (flow cytometry using a BD FACS ARIA II). The culture volume was replenished with fresh media according to the conditions tested. The data reported accounts for the dilution factor introduced in this procedure.
Separate experiments were performed for each compound tested (Compound 1.001-1.012).
Table 7, below, summarizes the relative expansive effect of Compound 1.001 to 1.012 (sample compounds) at the indicated concentration. The data in Table 7 is reported as the relative expansive effect. The relative expansive effect is a normalized value of the fold changes shown in each of the figures. It is calculated as shown below: […]

[2] = system: CD34+ cells isolated from donor non-mobilized peripheral blood (CD133+ and CD90+ cells); test: Relative expansive effect (relative cell number) of SF1670 derivatives, non-mobilized peripheral blood CD34+ cells, cytokines with IL-6 (Example 22); type: cell-based, human
Procedure: CD34+ cells were isolated from donor peripheral blood as described in Example 20. Isolated CD34+ cells were incubated in an in vitro culture media of Alpha MEM without phenol red, 10% (v/v) heat inactivated fetal bovine serum (FBS). When testing the substituted derivatives of 9,10-dihydrophenathrene (+Derivative conditions), two internal controls were used: a positive control (+SF conditions) and a baseline control (i.e, basic conditions (“cytokines only”)). The media components and concentrations used for the compounds tested are described in Table 8. The culture also included an antibiotic solution that includes penicillin, streptomycin, and amphotericin B to avoid contamination. Controls were included because the amount of expansion in samples obtained varies from individual to individual.
as §1
After the indicated number of days one-half of the volume of the cell culture was removed for data analysis (flow cytometry using a BD FACS ARIA II). The culture volume was replenished with fresh media according to the conditions tested.
Separate experiments were performed for each compound tested (Compound 1.014-1.016).
Table 9, below, summarizes the relative expansive effect of Compound 1.014 to 1.016 (sample compounds) at the indicated concentration. The data in Table 9 is reported as the relative cell number. The relative cell number is the normalized value of cell counts after the indicated number of days in culture. It is calculated as shown below: […]

[3] = 7 days in culture, 1 μM sample compound
[4] = 7 days in culture, 2 μM sample compound
[5] = 5 days in culture, 0.25 μM sample compound

CC(C)(C)CC(=O)Nc1ccc2c(c1)C(=O)C(=O)c1ccccc1-2 [Compound 1.004, N-(9,10-dioxo-9,10-dihydrophenanthren-2-yl)-3,3-dimethylbutanamide]
CD90 effect (relative expansive effect of CD90+ cells) ([1]; 0.125 μM sample compound): ++ (0.2 ≤ x < 0.55) | CD133 effect (relative expansive effect of CD133+ cells) ([1]; 0.125 μM sample compound): + (x < 0.2)

CC(=O)Oc1c(OC(C)=O)c2cc(NC(=O)C(C)(C)C)ccc2c2ccccc12 [Compound 1.012, 2-pivalamidophenanthrene-9,10-diyl Diacetate]
CD90 effect (relative expansive effect of CD90+ cells) ([1]; 0.5 μM sample compound): +++++ (1.25 ≤ x) | CD133 effect (relative expansive effect of CD133+ cells) ([1]; 0.5 μM sample compound): ++++ (0.9 ≤ x < 1.25)

CC(C)(C)C(=O)CNc1ccc2c(c1)C(=O)C(=O)c1ccccc1-2 [Compound 1.002, 2-((3,3-dimethyl-2-oxobutyl)amino)phenanthrene-9,10-dione]
CD90 effect (relative expansive effect of CD90+ cells) ([1]; 1 μM sample compound): ++ (0.2 ≤ x < 0.55) | CD133 effect (relative expansive effect of CD133+ cells) ([1]; 1 μM sample compound): + (x < 0.2)

COCCOc1c(O)c2cc(NC(=O)C(C)(C)C)ccc2c2ccccc12 [Compound 1.014, N-(10-hydroxy-9-(2-methoxyethoxy)phenanthren-2-yl)pivalamide]
CD90 effect (relative expansive effect, relative cell number) [2, 3]: ++ (0.2 ≤ x < 0.55) | CD133 effect (relative expansive effect, relative cell number) [2, 3]: ++ (0.2 ≤ x < 0.55)

Nc1ccc2c(c1)C(=O)C(=O)c1cc(NC(=O)CC(=O)O)ccc1-2 [Compound 1.003, 3-((7-amino-9,10-dioxo-9,10-dihydrophenanthren-2-yl)amino)-3-oxopropanoic acid]
CD90 effect (relative expansive effect of CD90+ cells) ([1]; 0.125 μM sample compound): ++ (0.2 ≤ x < 0.55) | CD133 effect (relative expansive effect of CD133+ cells) ([1]; 0.125 μM sample compound): + (x < 0.2)

O=C1C(=O)c2cc(NC(=O)C(Cl)(Cl)Cl)ccc2-c2ccccc21 [Compound 1.009, 2,2,2-trichloro-N-(9,10-dioxo-9,10-dihydrophenanthren-2-yl)acetamide]
CD90 effect (relative expansive effect of CD90+ cells) ([1]; 0.5 μM sample compound): +++ (0.55 ≤ x < 0.9) | CD133 effect (relative expansive effect of CD133+ cells) ([1]; 0.5 μM sample compound): ++ (0.2 ≤ x < 0.55)

CCCC(C)(C)C(=O)Nc1ccc2c(c1)C(=O)C(=O)c1ccccc1-2 [Compound 1.010, N-(9,10-dioxo-9,10-dihydrophenanthren-2-yl)-2,2-dimethylpentanamide]
CD90 effect (relative expansive effect of CD90+ cells) ([1]; 0.125 μM sample compound): +++ (0.55 ≤ x < 0.9) | CD133 effect (relative expansive effect of CD133+ cells) ([1]; 0.125 μM sample compound): + (x < 0.2)

O=C(COCc1ccccc1)Nc1ccc2c(c1)C(=O)C(=O)c1ccccc1-2 [Compound 1.015, 2-(benzyloxy)-N-(9,10-dioxo-9,10-dihydrophenanthren-2-yl)acetamide]
CD90 effect (relative expansive effect, relative cell number) [2, 4]: +++++ (1.25 ≤ x) | CD133 effect (relative expansive effect, relative cell number) [2, 4]: +++ (0.55 ≤ x < 0.9)

CCC(C)(C)C(=O)Nc1ccc2c(c1)C(=O)C(=O)c1ccccc1-2 [Compound 1.008, N-(9,10-dioxo-9,10-dihydrophenanthren-2-yl)-2,2-dimethylbutanamide]
CD90 effect (relative expansive effect of CD90+ cells) ([1]; 1 μM sample compound): ++ (0.2 ≤ x < 0.55) | CD133 effect (relative expansive effect of CD133+ cells) ([1]; 1 μM sample compound): ++ (0.2 ≤ x < 0.55)

CCCCCCCCCC(=O)Nc1ccc2c(c1)C(=O)C(=O)c1ccccc1-2 [Compound 1.005, N-(9,10-dioxo-9,10-dihydrophenanthren-2-yl)decanamide]
CD90 effect (relative expansive effect of CD90+ cells) ([1]; 2 μM sample compound): ++ (0.2 ≤ x < 0.55) | CD133 effect (relative expansive effect of CD133+ cells) ([1]; 2 μM sample compound): + (x < 0.2)

CC(C)(C)C(=O)Nc1ccc2c(c1)C(=O)C(=O)c1cc(N)ccc1-2 [Compound 1.007, N-(7-amino-9,10-dioxo-9,10-dihydrophenanthren-2-yl)pivalamide]
CD90 effect (relative expansive effect of CD90+ cells) ([1]; 1 μM sample compound): ++ (0.2 ≤ x < 0.55) | CD133 effect (relative expansive effect of CD133+ cells) ([1]; 1 μM sample compound): ++ (0.2 ≤ x < 0.55)

O=C1C(=O)c2ccc(NC(=O)C(Cl)(Cl)Cl)cc2-c2ccccc21 [Compound 1.011, 2,2,2-trichloro-N-(9,10-dioxo-9,10-dihydrophenanthren-3-yl)acetamide]
CD90 effect (relative expansive effect of CD90+ cells) ([1]; 0.25 μM sample compound): ++++ (0.9 ≤ x < 1.25) | CD133 effect (relative expansive effect of CD133+ cells) ([1]; 0.25 μM sample compound): ++ (0.2 ≤ x < 0.55)

CC(C)(C)C(=O)Nc1ccc2c(c1)C(=O)C(=NO)c1ccccc1-2 [Compound 1.016, N-(9-(hydroxyimino)-10-oxo-9,10-dihydrophenanthren-2-yl)pivalamide]
CD90 effect (relative expansive effect, relative cell number) [2, 5]: ++ (0.2 ≤ x < 0.55) | CD133 effect (relative expansive effect, relative cell number) [2, 5]: ++ (0.2 ≤ x < 0.55)

CC(C)(C)NC(=O)c1ccc2c(c1)C(=O)C(=O)c1ccccc1-2 [Compound 1.001, N-(tert-butyl)-9,10-dioxo-9,10-dihydrophenanthrene-2-carboxamide]
CD90 effect (relative expansive effect of CD90+ cells) ([1]; 0.5 μM sample compound): ++ (0.2 ≤ x < 0.55) | CD133 effect (relative expansive effect of CD133+ cells) ([1]; 0.5 μM sample compound): + (x < 0.2)

CC(=O)Nc1ccc2c(c1)C(=O)C(=O)c1ccccc1-2 [Compound 1.006, N-(9,10-dioxo-9,10-dihydrophenanthren-2-yl)acetamide]
CD90 effect (relative expansive effect of CD90+ cells) ([1]; 0.5 μM sample compound): ++ (0.2 ≤ x < 0.55) | CD133 effect (relative expansive effect of CD133+ cells) ([1]; 0.5 μM sample compound): + (x < 0.2)
